In ChEMBL document CHEMBL1138675 (J Med Chem, 2004):

Columns and labels:
[1] = molecular target: T1, Melatonin receptor type 1A (Homo sapiens, UniProt P48039); assay: Binding affinity for human recombinant Melatonin receptor type 1 expressed in NIH3T3 cells; type: cell-based
[2] = molecular target: T2, Melatonin receptor type 1B (Homo sapiens) (UniProt P49286)
T2 sequence (whole entry): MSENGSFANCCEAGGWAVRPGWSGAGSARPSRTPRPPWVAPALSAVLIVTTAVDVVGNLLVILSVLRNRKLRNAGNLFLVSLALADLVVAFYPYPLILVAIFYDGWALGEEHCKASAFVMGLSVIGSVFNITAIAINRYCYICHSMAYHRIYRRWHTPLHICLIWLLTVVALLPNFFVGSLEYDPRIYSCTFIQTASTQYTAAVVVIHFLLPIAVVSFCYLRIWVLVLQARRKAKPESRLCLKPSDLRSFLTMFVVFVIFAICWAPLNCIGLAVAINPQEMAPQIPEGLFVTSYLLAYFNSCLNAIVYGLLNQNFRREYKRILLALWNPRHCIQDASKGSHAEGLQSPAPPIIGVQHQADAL

[3] = molecular target: T1, Melatonin receptor type 1A
[4] = molecular target: T3, Melatonin receptor type 1B (Homo sapiens, UniProt P49286); assay: Binding affinity for human recombinant Melatonin receptor type 2 expressed in NIH3T3 cells; type: cell-based
T3 sequence (P49286 whole entry): T2 sequence (whole entry)

T1 sequence (P48039 whole entry): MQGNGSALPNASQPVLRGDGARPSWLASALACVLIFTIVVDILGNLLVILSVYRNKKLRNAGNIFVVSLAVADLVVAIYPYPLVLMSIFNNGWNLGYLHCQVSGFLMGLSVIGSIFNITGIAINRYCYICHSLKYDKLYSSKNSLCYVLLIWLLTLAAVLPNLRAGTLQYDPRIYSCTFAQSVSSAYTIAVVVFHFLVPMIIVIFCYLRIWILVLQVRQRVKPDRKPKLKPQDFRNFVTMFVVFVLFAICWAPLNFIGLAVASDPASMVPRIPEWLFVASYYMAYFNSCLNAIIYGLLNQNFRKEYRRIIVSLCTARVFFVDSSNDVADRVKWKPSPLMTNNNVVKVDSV

Compound	Ki [1]	IAr [2]	IAr [3]	Ki [4]
CC(=O)NCC(=O)N1c2ccccc2C=Cc2ccccc21	20.4 µM	–	–	11 µM
COc1ccc2[nH]cc(CCNC(C)=O)c2c1	–	–	1	–
CCC(=O)NCCN1c2ccccc2CCc2ccccc21	0.55 µM	0.13	0.03	0.2 µM
CC(=O)NCC1=Cc2ccccc2Cc2ccccc21	0.55 µM	-0.09	0.02	0.0851 µM
CC(=O)NCC1Cc2ccccc2Cc2ccccc21 (configuration not stated)	0.24 µM	-0.32	0.03	0.0302 µM
CC(=O)NCCC1Cc2ccccc2Cc2ccccc21 (configuration not stated)	0.389 µM	0.69	0.21	0.0891 µM

The next lines start with the values.

Ki [1]	IAr [2]	IAr [3]	Ki [4]	Compound
0.0575 µM	-0.1	-0.04	0.038 µM	CCC(=O)NCCN1c2ccccc2C=Cc2ccc(OC)cc21
0.00617 µM	-0.55	-0.18	0.000661 µM	COc1ccc2c(c1)C(CNC(C)=O)Cc1ccccc1C2 (configuration not stated)
0.00302 µM	-0.08	-0.14	0.000891 µM	COc1ccc2c(c1)C(CNC(C)=O)Cc1ccccc1C2=O (configuration not stated)
0.112 µM	-0.03	0.01	0.126 µM	CC(=O)NCCN1c2ccccc2C=Cc2ccccc21
0.00135 µM	-0.15	-0.1	0.000162 µM	CCC(=O)NCC1Cc2ccccc2Cc2ccc(OC)cc21 (configuration not stated)
0.162 µM	0.01	-0.07	0.0398 µM	COc1ccc2c(c1)C(CCNC(C)=O)Cc1ccccc1C2 (configuration not stated)
0.00129 µM	-0.17	-0.09	0.000245 µM	CCCC(=O)NCC1Cc2ccccc2Cc2ccc(OC)cc21 (configuration not stated)
